Data on 13 molecules can be found in ChEMBL document CHEMBL3091438, “Discovery and characterisation of hydrazines as inhibitors of the immune suppressive enzyme, indoleamine 2,3-dioxygenase 1 (IDO1)” (Bioorg Med Chem, 2013).

The structures appear in SMILES notation.

Data set [1] has as its target T1, Indoleamine 2,3-dioxygenase 1 (Homo sapiens, UniProt P14902). Kind of data set: Inhibition of recombinant human IDO1 expressed in Escherichia coli EC538 using L-tryptophan as substrate at 0.1 mM after 1 hr relative to control.
Target sequence in this assay (P14902 whole entry, looked up): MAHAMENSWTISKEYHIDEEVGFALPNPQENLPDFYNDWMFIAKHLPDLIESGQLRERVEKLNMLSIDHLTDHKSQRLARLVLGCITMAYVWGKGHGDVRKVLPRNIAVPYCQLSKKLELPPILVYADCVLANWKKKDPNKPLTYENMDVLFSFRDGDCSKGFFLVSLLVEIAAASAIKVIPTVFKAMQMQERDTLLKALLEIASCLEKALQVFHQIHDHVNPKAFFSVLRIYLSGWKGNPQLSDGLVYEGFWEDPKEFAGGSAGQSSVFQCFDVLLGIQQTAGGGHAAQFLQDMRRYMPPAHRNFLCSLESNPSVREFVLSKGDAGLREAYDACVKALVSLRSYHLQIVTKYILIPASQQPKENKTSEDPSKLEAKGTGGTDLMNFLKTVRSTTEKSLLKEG
Data set [2] concerns the target T1, Indoleamine 2,3-dioxygenase 1. Kind of data set: Inhibition of recombinant human IDO1 expressed in Escherichia coli EC538 using L-tryptophan as substrate after 1 hr.
Target sequence in this assay (P14902 whole entry): as the sequence (P14902 whole entry, looked up) above
The nature of data set [3]: Cytotoxicity against mouse LLTC cells at IC50 by MTT assay. The data set is classed as cell-based. Background: Tetrazolium dyes change colour on reduction, which living cells bring about.
The target of data set [4] is Indoleamine 2,3-dioxygenase 1 (Mus musculus, UniProt P28776). Kind of data set: Inhibition of mouse IDO1 expressed in mouse LLTC cells using L-tryptophan as substrate after 24 hrs. The class given is cell-based.
Indoleamine 2,3-dioxygenase 1 (Mus musculus, UniProt P28776), sequence (P28776 whole entry): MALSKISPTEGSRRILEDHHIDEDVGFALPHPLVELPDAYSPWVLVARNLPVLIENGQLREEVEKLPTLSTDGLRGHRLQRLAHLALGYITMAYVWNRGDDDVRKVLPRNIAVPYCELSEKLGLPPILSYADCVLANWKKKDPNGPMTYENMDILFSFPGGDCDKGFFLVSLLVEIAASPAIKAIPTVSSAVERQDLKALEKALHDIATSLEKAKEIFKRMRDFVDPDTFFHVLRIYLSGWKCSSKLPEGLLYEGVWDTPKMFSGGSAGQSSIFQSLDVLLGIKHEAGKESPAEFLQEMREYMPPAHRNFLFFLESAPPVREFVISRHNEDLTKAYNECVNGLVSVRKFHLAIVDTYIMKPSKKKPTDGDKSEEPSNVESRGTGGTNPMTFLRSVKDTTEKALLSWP
Data set [5] addresses T1, Indoleamine 2,3-dioxygenase 1. Kind of data set: Inhibition of human IDO1 expressed in mouse LLTC cells using L-tryptophan as substrate after 24 hrs. The data set is classed as cell-based.
Target sequence in this assay (P14902 whole entry): as the sequence (P14902 whole entry, looked up) above
The target is the same in data set [6]. As to the kind of experiment: Ratio of 2-hydrazinobenzothiazole IC50 to compound IC50 for recombinant human IDO1.
Target sequence in this assay (P14902 whole entry, looked up): as above

By inhibition is commonly meant the drop in the measured response relative to a control, in per cent. As for `NNc1nc2cc(C(F)(F)F)ccc2s1`, the inhibition in data set [1] was 46%.

Regarding `Cc1ccc2nc(NN)sc2c1`, in data set [1], the inhibition is 37%.

By IC50 is commonly meant the concentration that gives 50% inhibition. Take `Sc1nc2ccccc2s1` [2-MERCAPTOBENZOTHIAZOLE]: in data set [2], the IC50 was 126 µM.

With `NNC(=O)c1ccc2nc(NN)sc2c1`, the inhibition in data set [1] was -1%.

For `Nc1nc2ccc([N+](=O)[O-])cc2s1`, the IC50 in data set [2] is greater than 500 µM.

With `NNc1nc2ccccc2s1`, in data set [1], the inhibition was found to be 91%. Further, the Activity result in data set [3] was “Non-toxic”. The IC50 in data set [2] amounted to 8 µM; in data set [4], 50.5 µM; in data set [5] it was 62.3 µM.

On to `c1ccc2scnc2c1` [BENZO[D]THIAZOLE], for which the IC50 in data set [2] is 652 µM.

Turning to `CC(C)=NNc1nc2ccccc2s1`, in data set [1], the inhibition turned out to be 30%.

`NNc1ccccc1` [PHENYLHYDRAZINE]: the Activity entry in data set [3] is “Non-toxic”. Besides, the IC50 in data set [2] is 0.25 µM; in data set [4], 0.2 µM; in data set [5] it was 1.3 µM. The Ratio IC50 in data set [6] is 32.

For `O=C(O)/C=N/Nc1nc2ccccc2s1`, the inhibition in data set [1] is 13%.

As for `NNc1nc2cc(Cl)ccc2s1`, the inhibition in data set [1] turned out to be 86%. Further, in data set [2], the half-maximal inhibitory concentration (IC50) came out at 1.5 µM.

For the molecule `N#CCCN(N)c1nc2ccccc2s1`, the inhibition in data set [1] came to 2%.

With `c1ccc2sc(SSc3nc4ccccc4s3)nc2c1` [BENZOTHIAZYL DISULFIDE], the half-inhibitory concentration (IC50) in data set [2] is greater than 500 µM.
